How the values were obtained:
UMSCC10b cells = assay: Sensitivity to cDDP in vitro, clonogenic assay; assay type: cell-based, human; conditions: parental cell line, 1 h exposure
Experimental: The sensitivity of the UMSCC10b cell line and its cDDP-resistant variants to cDDP was determined by clonogenic assay using a 1 h cDDP exposure. A single-cell suspension was plated into 60 mm tissue culture dishes (Corning) at 300 cells per dish in fresh medium. After incubation for 24 h at 37° C., cells had attached to the plates and cDDP was added to the cells and incubated for 1 h following which the cells were washed twice with phosphate-buffered saline and 5 ml of fresh medium was added. Cultures were incubated for an additional 13-15 days following which there were fixed with methanol, stained with Giemsa, and clusters of >50 cells were scored as colonies. cDDP-selected cells were cultured in drug-free media for 2 weeks before cDDP sensitivity was determined by clonogenic assay.

GADD153 mRNA = GADD153 mRNA level in UMSCC10b xenografts in nude mice after cDDP; assay type: in vivo
Experimental: (§1) The various aspects of the invention are also useful for xenografted tumors. Nude mice were inoculated s.c. with human UMSCC10b tumor cells, and then treated with cDDP (0, 10, 15, 30 or 50 mg/kg cDDP i.p.) when the tumors reached 1 ml in volume. FIG. 5a depicts the results obtained when tumors were harvested at 24 h after cDDP treatment. […] The time course of the change in message level in the xenografts was similar to that observed with in vitro exposure of the cells (FIG. 5b). Thus, GADD153 mRNA levels can be increased in vivo by cDDP doses around the maximum tolerated dose in this system (15-20 mg/kg cDDP).
UMSCC10b cells were injected subcutaneously over the shoulder of athymic (BALB/c nu/nu) female mice, 3-4 weeks of age (Harlan Sprague Dawley, Indianapolis, Ind.). The xenografts were allowed to grow until they reached approximately […] in volume, at which time cDDP treatment was initiated. […]
GADD153 message levels were quantified using a modification of the technique reported by Horikoshi et al (20). […] PCR products were separated on a 8 M (6%) acrylamide gel and analyzed using a Molecular Imaging System (BioRad, Hercules, Calif.). For each RNA sample to be analyzed, a series of PCR reactions was performed to generate a graph of the amount of PCR product as a function of input CDNA for both GADD153 and β-ACTIN. […]

[1] = Maximum tolerated dose of cDDP in the nude mouse xenograft system; assay type: in vivo; conditions: nude mice, i.p.
Experimental: as §1

For `[NH2][Pt]([NH2])([Cl])[Cl]` [cDDP, cisplatin], which IC10 (UMSCC10b cells) is on record?
Its IC10 is 2 µM.

And the IC50 (UMSCC10b cells)?
The IC50 was 7 µM.

What about the IC70 (UMSCC10b cells) of the same compound?
The IC70 was 12 µM.

And the “time of return of GADD153 mRNA toward basal levels in vivo” value (GADD153 mRNA; UMSCC10b xenografts after treatment)?
Its value is at most 96 h.

And the “GADD153 mRNA levels in xenografts” value (GADD153 mRNA; tumors harvested 24 h after cDDP i.p., 0-50 mg/kg)?
Its value is “increased as a function of cDDP dose”.

What about the maximum tolerated dose [1] of the same compound?
The maximum tolerated dose was 15 to 20 mg/kg.
